Experimental data taken from US4132778A, “Antibiotic A-32887” (Eli Lilly and Company, priority 1977, dated 1979).

Experiments:
[1] = tested on: Transmissible Gastroenteritis virus; experiment: In vitro plaque suppression test
[2] = tested on: Infectious Canine Hepatitis virus; experiment: In vitro plaque suppression test
[3] = tested on: Bacillus subtilis; experiment: Conventional disc-diffusion method, minimal media, Table VIII; assay type: cell-based; conditions: each as Na-K salts
[4] = tested on: Micrococcus lutea; experiment: Conventional disc-diffusion method, Table VIII; assay type: cell-based; conditions: each as Na-K salts
Experimental: (§1) The antimicrobial activity of two typical A-32887 acyl ester derivatives is compared with that of A-32887 (each as Na-K salts) in Table VIII. Activity against illustrative bacteria is measured by the conventional disc-diffusion method. In addition, the results of a conventional paper-disc agar-diffusion assay system (Plate Assay) against Bacillus subtilis ATCC 6633 are reported. […] The samples were assayed at 1 mg/ml.

[5] = tested on: Staphylococcus aureus; experiment: Conventional disc-diffusion method, Table VIII; assay type: cell-based; conditions: each as Na-K salts
Experimental: as §1

[6] = tested on: Bacillus subtilis; experiment: Conventional disc-diffusion method, Table VIII; assay type: cell-based; conditions: each as Na-K salts
Experimental: as §1

[7] = Ion binding / ion transport (ionophore)
Excerpt: A-32887 can be used when the selective removal of particular cations is desired. Examples of such uses include the removal and recovery of silver ions from solutions in photography, the removal of toxic cations from industrial waste streams before such streams are discharged to the environment, and desalinization of sea water. A-32887 can be used as one component of an ion-specific electrode (O. Kedem, et al., U.S. Pat. No. 3,753,887, Aug. 21, 1973, Alkali metal specific measuring electrode). […] A-32887 can be used, therefore, as a component in a membrane used for the selective transport of cations against a concentration gradient. One potential application of this property is in recovery of heavy and precious metals on a commercial basis [see E. L. Cussler, D. F. Evans, and Sister M. A. Matesick, Science 172, 377 (1971)].

[8] = tested on: type B influenza virus (Maryland, dog kidney); experiment: In vitro plaque suppression test; assay type: cell-based

CO[C@H]1CC[C@H](OC2[C@@H](C)[C@@](C)(O)O[C@H]([C@H]3CC[C@H]([C@@H]4CC[C@H]([C@@]5(C)O[C@]6(O[C@H](C[C@@H]7O[C@](O)([C@@H](O)C(=O)O)[C@@H](C)[C@H](OC)[C@@]7(C)OC)C[C@@H](OC)[C@H]6C)[C@H](C)[C@H]5OC)O4)O3)[C@H]2C)O[C@@H]1C.[K+].[Na+] (stereo partly drawn) [A-32887]
antiviral activity [1]: active
antiviral activity [2]: active
activity by disc-diffusion, Bacillus subtilis [3]: 30
activity by disc-diffusion, Micrococcus lutea [4]: 16
activity by disc-diffusion, Staphylococcus aureus [5]: 16
activity by disc-diffusion, Bacillus subtilis [6]: 18
cation permeability of natural and artificial membranes [7]: alters the cation permeability of both natural and artificial membranes
ion-binding and ion-transport properties [7]: exhibits ion-binding and ion-transport properties
antiviral activity [8]: active
